Among the data in a melting point compilation (Tetko et al.; mined from patent text by program, amines drawn as free bases though some values may be those of a salt) are melting point values, retold here.

A word on the melting point: it is the temperature of the solid-liquid transition. For the molecule `COC1CCC2C3C(C)CC4=CC(=O)C(C)CC4(C)C3CCC12C` (stereo not given), the melting point is 123 to 126 °C.

`CCCSc1ncc(C(Cc2ccccc2)C(=O)O)n1Cc1ccccc1Cl` (stereo not given): the melting point fell in the range of 60 to 63 °C. In turn, `COc1ccccc1C(Nc1cc(Cl)c(Cl)cc1Cl)C(=O)O` (stereo not given) yielded a melting point of 188 °C.

For the molecule `CC(C)COC(=O)N[C@H](CC(=O)O)Cc1ccccc1`, the melting point lay in the range of 95 to 97 °C. The value for `CC(=O)/C=C(\C)c1ccc(-c2ccccc2)c(F)c1` was 103 °C; that for `CCCC(=O)c1cc(C(=O)C(=O)OC(=O)C(=O)c2cc(C(=O)CCC)c(C)cc2NCC)c(NCC)cc1C` was 141 to 143 °C; that for `c1ccc(CCN2CCC(CCc3cc(-c4ccccc4)nc4ccccc34)CC2)cc1` was 80 °C.

Molecule `Ic1cnc(-c2cccs2)s1` returned a melting point of 117 to 119 °C. `Cc1cc2c(=O)n3cc(C(=O)O)ccc3nc2s1` returned a melting point of 312 to 315 °C. The value for `CC1C(=O)c2cc([N+](=O)[O-])ccc2OC1(C)C` (stereo not given) was 78 °C; that for `COC(=O)c1cc(-c2ccc(C)cc2)n(Cc2ccc(Cl)c(Cl)c2)n1` was 98.6 °C; that for `COc1cc(NC(=O)C(C#N)=CNc2ccc(OC)c(Br)c2)c(Cl)cc1Cl` was over 250 °C. With `CCCCCCCCCCCc1nc2c(O)c(Cl)cc(Cl)c2cc1CCCCCCCCCC` the figure was 46 to 47 °C; with `CCOC(=O)c1cnc(N)nc1O`, 280 °C; with `O=C1OC(COc2ccc(Cl)cc2Cl)OC1c1ccccc1` (stereo not given), 105 to 107 °C. In turn, `N#CC=Cc1ccc(Cl)cc1C(=O)c1ccccc1F` gave a melting point of 130 to 133 °C.

`CCOC(=O)n1c(C)c(Cc2ccc(Cl)cc2Cl)c2nc(C#N)ccc21` had a melting point of 112 to 113 °C.

Consider `CC(C)(C)OC(=O)N1CCN(CC(O)CNc2ccc(CC#N)cc2)CC1` (stereo not given), for which the melting point lay within 86 to 87 °C. Take `Cc1cc(Cl)nc(C#N)c1`: the melting point turned out to be 133 °C. In turn, `c1ccc([C@@]23O[C@@H]2CCc2ccccc23)cc1` gave a melting point of 124 to 126 °C. `O=C1NC(=O)C(=Cc2ccc(S(=O)(=O)CCCc3ccccc3)cc2)S1` yielded a melting point of 224 to 225 °C.

The molecule `Cn1ncc2c1-c1c(Oc3ccc(F)cc3)sc(C(N)=O)c1CC2` returned a melting point of 188 to 189 °C. The value for `Cc1nn(C)c(F)c1C(=O)Nc1cccc2c1CCC2(C)C` was 138 °C; that for `CC(=O)OCc1cccc(N)c1I` was 80 to 81 °C. On to `CN1CCN(c2cccc3ccc(C(=O)c4ccccc4)cc23)CC1`, for which the melting point was 124 °C.

Consider `CN1CCN(c2ncccc2C#N)C(c2ccccc2)C1` (stereo not given), for which the melting point is 65.7 to 66.8 °C. Regarding `CSc1c(Cl)c(-c2cc(SC(C)C(=O)O)c(Cl)cc2Cl)nn1C` (stereo not given), the melting point was 180 °C. In the case of `O=C(O)CCCOc1ccc([C@H]2c3ccc(O)cc3OC[C@H]2c2ccccc2)cc1` (racemic), the melting point fell in the range of 91.5 to 94 °C. On to `COC(=O)c1ccccc1OCCCOc1cc2c(cc1O)CCO2`, for which the melting point was 96 to 97 °C. As for `C=CCOc1cc(C)ccc1[N+](=O)[O-]`, the melting point was in the range of 30 to 32 °C. The molecule `Cc1cc(C)cc(OCC(=O)c2ccccc2Br)c1` gave a melting point of 74 °C. The molecule `COCCO[C@@H]1c2ccn3c(CO)c(C)nc3c2N[C@H](c2ccccc2)[C@H]1O` showed a melting point of 180 to 183 °C. In turn, `CCOC(=O)c1[nH]c2ccc(Cl)cc2c1Cc1ccccc1` had a melting point of 196 to 197 °C. `COc1ccc(CCSCC2CCC2)cc1` showed a melting point of 52 °C. Turning to `CC(C)(C)c1cc(OC(=O)N2CC(O)C2)cc(C(C)(C)C)c1`, the melting point is 166 to 170 °C. `CCOC(=O)CC(C(=O)c1ccccc1)C(=O)c1ccccc1` displayed a melting point of 81 to 83 °C.

Turning to `Cn1nc2c(-c3ccc(Cl)cc3Cl)cccc2c1C1=NCCO1`, the melting point lay within 162 to 167 °C.

In turn, `Cn1cc(S(C)=O)c(=O)c2sc(-c3ccccc3)cc21` (stereo not given) yielded a melting point of 252 to 255 °C. Take `COc1cc(C(C)=O)c(F)cc1Cl`: the melting point lay in the range of 96.5 to 98.5 °C. On to `Cc1ccccc1NC(=O)Nc1ccc(C(=O)N2Cc3cccn3Cc3ccccc32)cc1`, for which the melting point lay within 155 to 158 °C. The value for `COC(=O)N(C(C)C)C1C=C(C)CC=C1C(=O)c1ccc(F)cc1` (stereo not given) was 98 to 102 °C; that for `NC[C@@H]1CNc2cccc(-c3ccc(Cl)cc3Cl)c2O1` was 163 °C. With `CCCCNC(=O)C1CC2(NC(=O)NC2=O)c2cc(F)ccc2O1` (stereo not given) the figure was 286 to 288 °C; with `Oc1ccc(C(=S)c2ccc(-c3ccccc3)cc2)c(O)c1`, 114 to 116 °C. With `COC(=O)c1ccc(-c2nc(-c3cc(C(F)(F)F)cc(C(F)(F)F)c3)co2)cc1` the figure was 180 to 181 °C; with `Cc1ccc(CC(=O)O)s1`, 54 °C; with `CCCCc1oc2ccccc2c1C(=O)NCc1ccc2c(Br)c(OCC(=O)OC)ccc2c1`, 140 to 141 °C. `COc1ccc(C2(C#N)CC=C(C(=O)O)CC2)cc1OC1CCCC1` (stereo not given) displayed a melting point of 161 to 163 °C. For `CC(=NNc1ccc(C(F)(F)F)cc1)C(=O)NCc1ccc(Cl)nc1`, the melting point amounted to 184 °C. The value for `N=C(N)NCCc1ccc(NC(=O)CC(c2ccccc2)(c2ccccc2)c2ccccc2)cc1` was 213 to 215 °C; that for `COc1ccc(C(=O)c2cccc(OCc3nc(-c4ccccc4)oc3C)c2)c(OCC(=O)O)c1` was 198 to 199 °C; that for `O=C(Nc1ccc(Oc2ccnc(N3CCCC(O)C3)n2)c2ccccc12)c1cc(F)cc(N2CCOCC2)c1` (stereo not given) was 180 to 181 °C.

In turn, `CCCN1CCN(c2cccc3ccc(NC(=O)c4ccc(Cl)cc4)cc23)CC1` had a melting point of 130 to 132 °C. The value for `CCCN1Cc2ccccc2C(=O)c2cc(CC(=O)O)ccc21` was 126 °C. `c1ccc(C2CCc3ccccc3S2)cc1` (stereo not given) gave a melting point of 45 to 49 °C. For `CCCCc1nc(C(C)O)c(C(=O)O)n1Cc1ccc(-c2ccccc2C(=O)O)cc1` (stereo not given), the melting point was 168 to 170 °C.

In turn, `COc1ccc(N2CN(CC(=O)O)C(=O)C23CCN(C(=O)OC(C)(C)C)CC3)cc1` displayed a melting point of 173 to 174 °C. In the case of `CCn1nc(-c2cccc(F)c2)c(C(C)=O)c(Nc2cccc3ncccc23)c1=O`, the melting point lay in the range of 205 to 207 °C.

`CC(C)(C)C(C)(C)Nc1nc(NC(C)(C)C(C)(C)C)nc(N2CCNCC2)n1` had a melting point of 183 to 185 °C. `COc1c(Cl)ccc(-c2cc(N)c(Cl)c(C(=O)NOCc3ccoc3)n2)c1F` returned a melting point of 160 to 162 °C. The value for `COc1ccc2cc3c(CN)nn(C)c3nc2c1` was 119 to 120 °C. The value for `OCc1cn2c(n1)CN=C(c1ccccc1)c1cc(Cl)ccc1-2` was 203 to 204 °C; that for `CCOc1nc2ccccc2nc1N(C)C(=O)N1CCN(c2cc(Cl)cc(Cl)c2)CC1` was 129 to 131 °C; that for `CC1(C)CC(C)(c2ccc(Oc3ccc([N+](=O)[O-])cc3)cc2)c2cc(Oc3ccc([N+](=O)[O-])cc3)ccc21` (stereo not given) was 214 to 216 °C. Molecule `Cn1nnnc1-c1cn(C)c2cc(C#N)ccc2c1=O` yielded a melting point of 301 to 303 °C. As to `N#CCCN(CCC#N)c1ccccc1C#N`, the melting point was 79 to 82 °C. With `c1nc2cc3c(cc2[nH]1)OCO3` the figure was 155 to 156 °C. With `CC1(CN=[N+]=[N-])COC(Cn2ccnc2)(c2ccc(Cl)cc2Cl)OC1` (stereo not given) the figure was 132 to 133 °C. `COc1ccc2c(=O)ccn(CCN3CCC(NC(=O)OC(C)(C)C)CC3)c2c1`: the melting point is 207 °C.

Consider `CN1C(=O)CC[C@]2(C)c3ccc(Sc4nc5cc([N+](=O)[O-])ccc5s4)cc3CC[C@@H]12`, for which the melting point lay within 96 to 100 °C.

`NC(=O)Cc1ccc2c(c1)CCc1cccnc1S2` came in with a melting point of 165 to 166 °C. Take `O=C1CCCc2c1ccc(O)c2O`: the melting point lay in the range of 191 to 194 °C. The value for `Nc1scc2c1c(=O)oc1ccc3ccccc3c12` was 221 to 222 °C; that for `O=C(O)Cc1c(C(=O)C2CCC2)[nH]c2cc(Cl)ccc12` was 225 to 228 °C; that for `O=C1c2ccccc2-c2csc(N3C(=O)c4ccccc4C3=O)c21` was 197 to 199 °C. `N#CCCOC(=O)C=C1C=C(c2ccccc2)S(=O)(=O)C(c2ccccc2)=C1` showed a melting point of 156 to 157 °C. Regarding `Oc1ccc(-c2ncc3ncc(-c4ccncc4)cc3n2)cc1`, the melting point was over 268 °C.

Molecule `CN1C(=O)COc2c1cc(Cl)c([N+](=O)[O-])c2C(=O)O` had a melting point of 257 °C. With `CC(CC(Sc1cc(C(C)(C)C)c(O)c(C(C)(C)C)c1)Sc1cc(C(C)(C)C)c(O)c(C(C)(C)C)c1)Sc1cc(C(C)(C)C)c(O)c(C(C)(C)C)c1` (stereo not given), the melting point fell in the range of 125 to 126 °C. The value for `CCOC(=O)c1ccc2c(C=C[N+](=O)[O-])c[nH]c2c1` was 241 °C; that for `CNC(=O)CCCC1CCN(Cc2cnc3cc(NC(=O)c4ccc(-c5ccc(F)cc5)cc4)c(C)cc3c2)CC1` was 223 °C; that for `COc1cc2c(cc1OC)CN(CCCc1ccc(NC(=O)c3nc4cc(C)c(C)cc4nc3OC)cc1)CC2` was 164 to 166 °C. Consider `Cc1cc(Cl)ccc1-c1nn(C(C)(C)C(=O)N(C)C)cc1C`, for which the melting point fell in the range of 99 to 100 °C.

Molecule `CC1(c2cccc(S(N)(=O)=O)c2)OCCO1` yielded a melting point of 155 to 157 °C. In turn, `COC(=O)C12CCc3cc(Cl)ccc3C1=NN(C(=O)Nc1ccc(C(F)(F)F)cc1)C2` (stereo not given) had a melting point of 234 to 236 °C. `CCOC(=O)NCCOc1ccc(Oc2cc(F)cc(F)c2)cc1` had a melting point of 54 to 56 °C.

As for `COC(=O)c1ccc2cc(CCCCc3cc4ccc(C(=O)OC)cc4o3)oc2c1`, the melting point lay in the range of 130 to 131 °C. `CCN(CC)C(=O)c1cccc(OC)c1-c1ccccc1` displayed a melting point of 55 to 56 °C.

`O=S(=O)(NCc1cccnc1)c1ccc(Br)s1` had a melting point of 125 °C.

Turning to `CCNC1CCN(c2c(F)cc3c(=O)c(C(=O)O)cn(C4CC4)c3c2OC)CC1C` (stereo not given), the melting point is 160 to 162 °C.
